In US20090137652A1, “METHODS FOR NEUROPROTECTION” (priority 2005, published 2009):
Values joined by “and” are separate entries in the source; they are usually repeats but may differ in a detail not shown here. Equal values may be shown once. Marks after values point to notes of the source that are not given here.

Key:
[1] = tested on: rats subjected to li-pilo SE; experiment: Latency to and frequency of spontaneous seizures by video recording, lithium-pilocarpine model (Example 2); format: in vivo, rat
Protocol: All rats received lithium chloride (3 meq/kg, i.p., Sigma, St Louis, Mo., U.S.A.) and about 20 h later, all animals received also methylscopolamine bromide (1 mg/kg, s.c., Sigma) that was administered to limit the peripheral effects of the convulsant. SE was induced by injecting pilocarpine hydrochloride (25 mg/kg, s.c., Sigma) 30 min after methylscopolamine. The effects of increasing doses of TC (RWJ) were studied in 5 groups of rats. […] The control group received vehicle instead of pilocarpine and TC. The rats surviving SE were then injected about 10 h after the first TC injection with a second i.p. injection of 1.25 mg/kg DZP for the DZP group or of the same dose of TC as in the morning and were maintained under a twice daily TC treatment (s.c.) for 6 additional days while DZP rats received a vehicle injection.
The effects of DZP and the 4 doses of TC on epileptogenesis were investigated by daily video recording of the animals for 10 h per day. Video recording was performed for 4 weeks during which the occurrence of the first seizure was noted as well as the total number of seizures over the whole period. Animals were then taken off the video recording system and kept for 4 additional weeks in our animal facilities before they were sacrificed after a total period of 8 weeks of epilepsy.
For neuronal damage and epileptogenesis, statistical analysis between groups was performed by means of a one-way analysis of variance followed by a post-hoc Dunnett or Fisher test using the Statistica software.

[2] = tested on: rats subjected to Li-pilo induced SE; experiment: Latency to and frequency of spontaneous recurrent seizures (SRS), lithium-pilocarpine model (Example 1); format: in vivo, rat
Protocol: All rats received lithium chloride (3 meq/kg, i.p., Sigma, St Louis, Mo., U.S.A.); about 20 h later, animals were placed into plexiglas boxes, in order to record baseline cortical EEG. Methylscopolamine bromide (1 mg/kg, s.c., Sigma) was administered to limit the peripheral effects of the convulsant. SE was induced by injecting pilocarpine hydrochloride (25 mg/kg, s.c., Sigma) 30 min after methyl-scopolamine. The bilateral EEG cortical activity was recorded during the whole duration of SE and behavioral changes were noted.
The effects of increasing doses of the test compound were studied on 3 groups of rats. The animals of the first group received 10 mg/kg of the test compound, i.p., 1 h after the onset of SE (pilo-TC10) while the animals of groups 2 and 3 received 30 and 60 mg/kg of the test compound (pilo-TC30 and pilo-TC60), respectively.
Another group was injected with 2 mg/kg diazepam (DZP, i.m.) at 1 h after the onset of SE. This is a standard treatment to improve animals survival after SE (pilo-DZP). The control group received saline instead of pilocarpine and the test compound (saline-saline). The pilo-test compound rats surviving SE were then injected about 10 h after the first test compound injection with a second i.p. injection of the same dose of the test compound and were maintained under a twice daily treatment with the test compound for 6 additional days. Pilo-DZP received a second injection of 1 mg/kg DZP on the day of SE at about 10 h after the first one. Thereafter, Pilo-DZP and saline-saline rats received twice daily an equivalent volume of saline.
The effects of the test compound on the EEG and on the latency to occurrence of SRS were investigated by daily video recording of the animals for 10 h per day and the recording of the electrographic activity twice a week for 8 h.
To calculate the frequency of SRS in pilocarpine-exposed rats, the seizure severity and distinguished stage III (clonic seizures of facial muscles and anterior limbs) and stage IV-V seizures (rearing and falling) was considered. The frequency of stage III SRS per week in pilo-DZP and pilo-test compound rats was variable amongst the groups. It was low, constant in the pilo-DZP and pilo-TC60 (with early SRS onset) groups during the first 3 weeks and had disappeared during the 4th week in the pilo-DZP group. […] The frequency of more severe stage IV-V SRS was highest during the first week in most groups, except pilo-TC30 and TC60 with late seizure onset where the SRS frequency was constant over the whole 4 weeks in TC30 group and over the first two weeks in the pilo-TC60 group with late SRS onset in which no stage IV-V seizures where no seizures recorded after the second week.

With `CN1C(=O)CN=C(c2ccccc2)c2cc(Cl)ccc21` [DZP, diazepam, reference compound] the “frequency of spontaneous seizures over four weeks of recording” value (“frequency … over four weeks of recording” below) ([1]; DZP and TC30 groups) was “tendency to be higher”, the “Latency to the first spontaneous seizure” value ([1]; DZP, 14 animals) was 15.5 ± 2.3 days and 15.5 ± 2.34 days and the “frequency of stage IV-V SRS” value ([2]; pilo-DZP, first week) was 11.3 SRS per week. The “latency to SRS” value ([2]; pilo-DZP, n=9) was 18.2 ± 6.9 days.
`NC(=O)OC[C@@H](O)c1ccccc1Cl` [Formula 7] was tested, and the “frequency … over four weeks of recording” value ([1]; DZP and TC30 groups) was “tendency to be higher”, the “rats with short latencies to seizures (shorter than 40 days after SE)” value (“rats … (shorter than 40 days after SE)” below) ([1]; TC 90 mg/kg, 4/11) was 36% and the “rats … (shorter than 40 days after SE)” value ([1]; TC 120 mg/kg, 1/9) was 11%. For the same compound, the “latency to epilepsy of the long latency subgroup relative to the short latency” value ([1]; TC 60, 90 and 120 mg/kg, subgroup of 2-4 animals per group) was 4-6 times, the “frequency … over four weeks of recording” value ([1]; TC60, 90 and 120 groups, significant for total or mean number of seizures over the four weeks) was “lower” and the “rats … (shorter than 40 days after SE)” value ([1]; TC at 30 mg/kg (so in the source), 7/10) was 70%. For the same compound, the “percentage of non-epileptic rats (no seizure over 150 days post-SE)” value ([1]; at both of the two highest doses of TC (90 and 120 mg/kg)) was 45%, the “Latency to the first spontaneous seizure” value ([1]; pilo-TC30 (30 mg/kg), 8 animals, listed as TC) was 11.6 ± 2.5 days and the “Latency to the first spontaneous seizure” value ([1]; pilo-TC60 (60 mg/kg), Long latency subgroup (n = 3)) was 76.7 ± 15.6 °° days. For the same compound, the “Latency to the first spontaneous seizure” value ([1]; pilo-TC60 (60 mg/kg), Short latency subgroup (n = 7)) was 17.4 ± 5.4 days, the “Latency to the first spontaneous seizure” value ([1]; pilo-TC90 (90 mg/kg), Long latency subgroup (n = 2)) was 52.0 ± 1.0 ° days and the “Latency to the first spontaneous seizure” value ([1]; pilo-TC90 (90 mg/kg), Short latency subgroup (n = 4)) was 14.8 ± 5.7 days. The “Latency to the first spontaneous seizure” value ([1]; pilo-TC120 (120 mg/kg), Long latency subgroup (n = 4)) was 84.5 ± 16.7 °° days, the “Latency to the first spontaneous seizure” value ([1]; pilo-TC120 (120 mg/kg), Non epileptic subgroup (n = 4), no seizure over 150 days post-SE) was 150** °° days and the “Latency to the first spontaneous seizure” value ([1]; pilo-TC120 (120 mg/kg), Short latency subgroup (n = 1)) was 13.0 days. The “mean delay to becoming epileptic relative to the other groups of animals” value ([2]; TC 60 mg/kg, subgroup of animals with delayed SRS) was “about 9 fold”, the “rats in which occurrence of spontaneous seizures was delayed” value ([2]; TC 60 mg/kg, 4 out of 11) was 36% and the “frequency of stage IV-V SRS” value ([2]; TC10, TC30 and TC60 (with early SRS onset) groups, first week, significantly reduced vs pilo-DZP) was 2.3-6.1 SRS per week. The absence of epilepsy ([2]; TC60 (60 mg/kg)) was “one rat did not become epileptic in a delay of 9 months post-SE”, the “latency to SRS” value ([2]; TC60 (60 mg/kg), subgroup with latency similar to other groups, n=7) was 17.6 ± 8.7 days and the “latency to SRS” value ([2]; TC60 (60 mg/kg), subgroup with much longer delay, mean, n=4) was 149.8 ± 36.0 days. The “latency to SRS” value ([2]; pilo-TC10 (10 mg/kg, 7-day treatment), n=7) was 15.4 ± 5.1 days, the “frequency of stage III SRS” value ([2]; pilo-TC10, weeks 3 and 4) was “significantly increased over pilo-DZP values” and the “latency to SRS” value ([2]; pilo-TC30 (30 mg/kg, 7-day treatment), n=10) was 18.9 ± 9.0 days. The “frequency of stage IV-V SRS” value ([2]; pilo-TC60 group with early SRS onset, weeks 2-4, significantly reduced vs pilo-DZP) was 0.6-0.9 seizure per week.
